Results on one compound are retold here after US4795808A, “Anthracycline tetrasaccharides” (Hoechst Aktiengesellschaft, priority 1985, dated 1989).

This assay has as its system L1210 leukemia cells. Description: cell proliferation test on L1210 leukemia cells (C14-thymidine incorporation). It counts as cell-based. The conditions noted are these: Mus musculus, 72 hours, 37° C., 5% of CO2, concentration which reduces incorporation of radioactive thymidine by 50% vs control. As to the method: The inhibiting action was determined (cell proliferation test) as described below:
[…] cells in the exponential growth phase (5×10^3 /ml in RPMI 1640) are incubated in a microtiter plate with different concentrations of the test substance for 72 hours (37° C., 5% of CO2, 95% relative atmospheric humidity). Controls comprise cells incubated only with fresh medium. All the determinations are carried out as 4-fold determinations. After 65 hours, 50 μl of C14-thymidine (1.5 μC/ml) are added in order to radiolabel the cell DNA. After incubation for 7 hours, the cells are filtered off with suction and the DNA is precipitated with 5% strength trichloroacetic acid and washed with water and methanol in succession. After drying at 50° C., the radioactivity incorporated into the DNA is determined after addition of 5 ml of scintillation liquid. The results are stated as ratios of the scintillation index after incubation with the test substance in percent of the untreated control. From the measurement values thus obtained, the dose/effect curve is determined, and the IC50, that is to say the concentration which reduces the incorporation of radioactive thymidine by 50% under test conditions in comparison with the control, is determined graphically.
A general note: Incorporation of labelled thymidine or its analogues reports DNA synthesis.

SMILES strings stand for the structures.

The term IC50 denotes the concentration that gives 50% inhibition. `CCC1(O)CC(OC2CC(N(C)C)C(OC3CCC(OC4C=CC(=O)C(C)O4)C(C)O3)C(C)O2)c2c(O)c3c(c(O)c2C1OC1CC(N(C)C)C(O)C(C)O1)C(=O)c1cccc(O)c1C3=O` (stereo not shown) [cytorhodin SE gluconate]: the IC50 was determined as 6 ng/mL.
